# Measured values published in patent US20050256034A1, “Dioxolane analogs for improved inter-cellular delivery” (priority 2000, published 2005).
# Test: 3H-Thymidine Incorporation Assay (24 hr drug, wash, another 48 hr; 72 hr assay)
# Assay type: cell-based
# Details: MCF7, read-out: IC50 in μM (3H-TdR incorporation at 72 hr) MCF-7 24 h, MCF-7 human breast carcinoma; 24 h exposure to drug, wash, another 48 hr
row,SMILES,IC50
1,"Nc1ccn([C@@H]2CO[C@H](COCOCc3ccccc3)O2)c(=O)n1 [Compound 56, 4-AMINO-1-(2-BENZYLOXY- METHOXYMETHYL-[1,3]DI- OXOLAN-4-YL)-1H-PYRI- MIDIN-2-ONE]",2 µM

# Same assay, conditions: NCI-H460, read-out: IC50 in μM (3H-TdR incorporation at 72 hr) H-460 24 h, H-460 human lung carcinoma; 24 h exposure to drug, wash, another 48 hr
row,SMILES,IC50
1,"Nc1ccn([C@@H]2CO[C@H](COCOCc3ccccc3)O2)c(=O)n1 [Compound 56, 4-AMINO-1-(2-BENZYLOXY- METHOXYMETHYL-[1,3]DI- OXOLAN-4-YL)-1H-PYRI- MIDIN-2-ONE]",7 µM
2,"CC(C(=O)OC[C@H]1OC[C@@H](n2ccc(N)nc2=O)O1)c1ccccc1 (stereo partly drawn) [Compound 69, (2S,4S)-2-(2″-METHYL- PHENYLACETOXY)METH- YL-4-CYTOSIN-1′-YL-1,3-DI- OXOLANE]",0.045 µM

# Same assay, conditions: NCI-H460, read-out: IC50 in μM (3H-TdR incorporation at 72 hr) H-460 (72 h), H-460 human lung carcinoma; 72 h exposure
row,SMILES,IC50
1,CC(=O)OC[C@H]1OC[C@@H](n2ccc(N)nc2=O)O1 [Compound 27],0.0053 µM

# Same assay, conditions: ratio of IC50 CEM/dCK- to IC50 CCRF-CEM, 24 h exposure
row,SMILES,Factor (Resistance Factor = Ratio of dCK- on Wild-type CCRF-CEM)
1,"CCC(C)(C)OC(C)OC[C@H]1OC[C@@H](n2ccc(N)nc2=O)O1 (mixture of isomers) [Compound 117, 4-AMINO-1-{2-[1-(1,1-DI- METHYL-PROPOXY)-ETH- OXYMETHYL]-[1,3]DI- OXOLAN-4-YL}-1H-PYRI- MIDIN-2-ONE]",494
2,"Nc1ccn([C@@H]2CO[C@H](COC3CCCCO3)O2)c(=O)n1 (some centres unmarked) [Compound 41, 4-AMINO-1-[2-(TETRA- HYDRO-PYRAN-2-YLOXY- METHYL)-[1,3]DI- OXOLAN-4-YL]-1H-PYRI- MIDIN-2-ONE]",5
3,"O=C(Nc1ccn([C@@H]2CO[C@H](COC(=O)Oc3ccccc3)O2)c(=O)n1)Oc1ccccc1 [Compound 43, CARBONIC ACID 4-(2-OXO-4-PHENOXY- CARBONYLAMINO-2H-PYRI- MIDIN-1-YL)-[1,3]DI- OXOLAN-2-YLMETH- YL ESTER PHENYL ESTER]","1,000,000"
4,"O=C(Nc1ccn([C@@H]2CO[C@H](CO)O2)c(=O)n1)Oc1ccccc1 [Compound 44, [1-(2-HYDROXYMETHYL-[1,3]DI- OXOLAN-4-YL)-2-OX- O-1,2-DIHYDRO-PYRI- MIDIN-4-YL]-CARBAMIC ACID PHENYL ESTER]","1,300"
5,"CCOC(=O)Nc1ccn([C@@H]2CO[C@H](CO)O2)c(=O)n1 [Compound 45, [1-(2-HYDROXYMETHYL-[1,3]DI- OXOLAN-4-YL)-2-OX- O-1,2-DIHYDRO-PYRI- MIDIN-4-YL]-CARBAMIC ACID ETHYL ESTER]",63
6,"CCOC(=O)Nc1ccn([C@@H]2CO[C@H](COC(=O)OCC)O2)c(=O)n1 [Compound 47, CARBONIC ACID 4-(4-ETH- OXYCARBONYLAMINO-2-OX- O-2H-PYRIMIDIN-1-YL)-[1,3]DI- OXOLAN-2-YL- METHYL ESTER ETHYL ESTER]",34
7,"Nc1ccn([C@@H]2CO[C@H](COC(=O)Cc3ccccc3)O2)c(=O)n1 [Compound 52, (2S,4S)-2-PHENYL- ACETOXYMETHYL-4-CYTO- SIN-1′-YL-1,3-DI- OXOLANE]",400
8,"COc1ccc(OC(=O)Nc2ccn([C@@H]3CO[C@H](COC(=O)Oc4ccc(OC)cc4)O3)c(=O)n2)cc1 [Compound 63, CARBONIC ACID 4-[4-(4-METH- OXY-PHENOXY- CARBONYLAMINO)-2-OX- O-2H-PYRIMIDIN-1-YL]-[1,3]DI- OXOLAN-2-YLMETHYL ESTER 4-METH- OXY-PHENYL ESTER]","2,778"
9,"CCCCC(C)C(=O)OC[C@H]1OC[C@@H](n2ccc(/N=C/N(C)C)nc2=O)O1 (stereo partly drawn) [Compound 64, (2S,4S)-2-(2″-METHYL-HEXANO- ICOXYMETHYL)-4-(4′-NN-DI- METHYLAMINOMETHYLENE-CYTO- SIN-1′-YL)-1,3-DI- OXOLANE]","2,000"
10,"CC(C)OC(=O)OCOC[C@H]1OC[C@@H](n2ccc(N)nc2=O)O1.O=C(O)C(F)(F)F.O=C(O)C(F)(F)F [Compound 68, CARBONIC ACID 4-(4-A- MINO-2-OXO-2H-PYRI- MIDIN-1-YL)-[1,3]DI- OXOLAN-2-YL- METHOXYMETHYL ESTER ISOPROPYL ESTER TRIFLUOROACETIC ACID SALT]","3,333"
